From patent US20240083857A1, “2-Methyl-Quinazolines” (Bayer Pharma Aktiengesellschaft, priority 2017, published 2024)
pIC50: −log10 of the molar value.

How the values were obtained:
[1] = target: K-Ras^G12C : hSOS1 interaction (Homo sapiens, UniProt Q07889); assay: Biochemical assay 1: K-Ras^G12C interaction assay with hSOS1 (HTRF); format: binding; settings: read-out: Assay 1 (KRAS-SOS Interaction) activity expressed as IC50
[2] = target: human SOS1 (nucleotide exchange of K-Ras^G12C) (Homo sapiens, UniProt Q07889); assay: Biochemical assay 2: K-Ras^G12C activation assay by hSOS1 at high GTP concentration (HTRF); settings: high GTP; read-out: Assay 2 (KRAS-Activation by SOS high GTP) activity expressed as IC50

Question: How did the pIC50 [1] turn out when `CCCCNCc1ccccc1-c1ccc(C(C)Nc2nc(C)nc3cc(OC)c(OC)cc23)s1` (stereo not shown) [Example 366, N-[1-(5-{2-[(butylamino)methyl]phenyl}thiophen-2-yl)ethyl]-6,7-dimethoxy-2-methylquinazolin-4-amine] was run?
Answer: 7.01

Question: And the pIC50 [2]?
Answer: 7.01

Question: How did the pIC50 [1] turn out when `CCNCc1ccccc1-c1ccc(C(C)Nc2nc(C)nc3cc(OC)c(OC)cc23)s1` (stereo not shown) [Example 367, N-[1-(5-{2-[(ethylamino)methyl]phenyl}thiophen-2-yl)ethyl]-6,7-dimethoxy-2-methylquinazolin-4-amine] was run?
Answer: 7.15

Question: And the pIC50 [2]?
Answer: 7.21
